Source: US9593149B2, “Amylin and calcitonin receptor agonist” (Novo Nordisk A/S, priority 2014, dated 2017)
In brackets after ≈: the same amount, converted by molar mass. Numbered stars: 1 amine (or outer) side, 2 acyl side, 3 side chain; on linkers, the order of the positions; unused ones are H or OH. Side chains are listed from the residue outwards. Peptide text beside a SMILES is read from it. * marks the point of attachment. C20 diacid = O=C(O)CCCCCCCCCCCCCCCCCCC(=O)*; C18 diacid = O=C(O)CCCCCCCCCCCCCCCCC(=O)*; γGlu = O=C(O)[C@H](CCC(=O)[*:2])N[*:1]

Experiment: Assay (IV) determination of solubility
Assay type: physicochemical
Experimental: Assay (IV)—Determination of Solubility
The mimylin peptide was dissolved in water at ˜500 nmol/ml and mixed 1:1 with a series of buffers (100 mM glycylglycine pH 3.0, 100 mM glycylglycine pH 4.0, 100 mM glycylglycine pH 5.0, 100 mM bistrispropane pH 6.0, 100 mM bistrispropane pH 6.5, 100 mM bistrispropane pH 7.0, 100 mM bistrispropane pH 7.5, 100 mM bistrispropane pH 8.0).

| SMILES | Solubility (pH 3.0) | Solubility (pH 4.0) | solubility at 18 h (pH 5.0) | Solubility (pH 6.0) | Solubility (pH 6.5) | Solubility (pH 7.0) | Solubility (pH 7.5) | Solubility (pH 8.0) | Solubility (pH 5.0) | solubility at 18 h (pH 6.0) | solubility at 18 h (pH 6.5) | solubility at 18 h (pH 7.0) | solubility at 18 h (pH 4.0) |
| --- | --- | --- | --- | --- | --- | --- | --- | --- | --- | --- | --- | --- | --- |
| CC(C)C[C@H](NC(=O)CNC(=O)[C@H](CO)NC(=O)[C@H](C)NC(=O)CC[C@H](NC(=O)CCCCCCCCCCCCCCCCCCC(=O)O)C(=O)O)C(=O)N[C@@H](CO)C(=O)N[C@H](C(=O)N[C@@H](C)C(=O)N[C@H](C(=O)N[C@@H](CC(C)C)C(=O)NCC(=O)N[C@@H](CCCNC(=N)N)C(=O)N[C@@H](CC(C)C)C(=O)N[C@@H](CO)C(=O)N[C@@H](C)C(=O)N[C@@H](CCC(=O)O)C(=O)N[C@@H](CC(C)C)C(=O)N[C@@H](Cc1cnc[nH]1)C(=O)N[C@@H](CCC(=O)O)C(=O)N[C@@H](CC(C)C)C(=O)N[C@@H](C)C(=O)N[C@H](C(=O)N[C@@H](Cc1ccc(O)cc1)C(=O)N1CCC[C@H]1C(=O)N[C@@H](CCCNC(=N)N)C(=O)N[C@H](C(=O)N[C@@H](CCC(=O)O)C(=O)N[C@H](C(=O)NCC(=O)N[C@@H](CO)C(=O)NCC(=O)N[C@H](C(=O)N[C@@H](Cc1ccc(O)cc1)C(N)=O)[C@@H](C)O)[C@@H](C)O)[C@@H](C)O)[C@@H](C)O)C(C)C)[C@@H](C)O [compound 104, [N-terminal(C20 diacid-gGlu), des1, 4G, 9V, 23Y, 30S, 31G, 32T, 33Y]mimylin] ({C20 diacid-γGlu}-ASGLSTAVLGRLSAELHELATYPRTETGSGTY-NH2) | ≧200 μM | ≧200 μM | 119 µM (≈ 448 µg/mL) | ≧200 μM | ≧200 μM | ≧200 μM | ≧200 μM | ≧200 μM |  |  |  |  |  |
| CC(C)C[C@H](NC(=O)[C@H](CCCNC(=N)N)NC(=O)CNC(=O)[C@H](CC(C)C)NC(=O)[C@@H](NC(=O)[C@H](C)NC(=O)[C@@H](NC(=O)[C@@H](NC(=O)[C@H](CC(C)C)NC(=O)[C@H](CCC(=O)O)NC(=O)[C@H](CO)NC(=O)[C@H](C)NC(=O)CC[C@H](NC(=O)CCCCCCCCCCCCCCCCC(=O)O)C(=O)O)[C@@H](C)O)[C@@H](C)O)C(C)C)C(=O)N[C@@H](CCC(=O)O)C(=O)N[C@@H](C)C(=O)N[C@@H](CCC(=O)O)C(=O)N[C@@H](CC(C)C)C(=O)N[C@@H](Cc1cnc[nH]1)C(=O)N[C@@H](CCC(=O)O)C(=O)N[C@@H](CC(C)C)C(=O)N[C@H](C(=O)N[C@H](C(=O)N[C@@H](CC(C)C)C(=O)N1CCC[C@H]1C(=O)N[C@@H](CCCNC(=N)N)C(=O)N[C@H](C(=O)N[C@@H](CCC(=O)O)C(=O)N[C@H](C(=O)NCC(=O)N[C@H](C(=O)NCC(=O)N[C@H](C(=O)N1CCC[C@H]1C(N)=O)[C@@H](C)O)[C@@H](C)O)[C@@H](C)O)[C@@H](C)O)[C@@H](C)O)[C@@H](C)O [compound 106, [N-terminal(C18 diacid-gGlu), des1, 6T, 9V, 14E, 21T, 30T, 31G, 32T]mimylin] ({C18 diacid-γGlu}-ASELTTAVLGRLEAELHELTTLPRTETGTGTP-NH2) | ≧200 μM | ≧200 μM |  | ≧200 μM | ≧200 μM | ≧200 μM | ≧200 μM | ≧200 μM | ≧200 μM |  |  |  |  |
| CC(C)C[C@H](NC(=O)CNC(=O)[C@H](CO)NC(=O)[C@H](C)N)C(=O)N[C@@H](CO)C(=O)N[C@H](C(=O)N[C@@H](C)C(=O)N[C@@H](C)C(=O)N[C@@H](CC(C)C)C(=O)NCC(=O)N[C@@H](CCCNC(=N)N)C(=O)N[C@@H](CC(C)C)C(=O)N[C@@H](CO)C(=O)N[C@@H](CCC(N)=O)C(=O)N[C@@H](CCC(=O)O)C(=O)N[C@@H](CC(C)C)C(=O)N[C@@H](Cc1cnc[nH]1)C(=O)N[C@@H](CCC(=O)O)C(=O)N[C@@H](CC(C)C)C(=O)N[C@@H](CCC(N)=O)C(=O)N[C@H](C(=O)N[C@@H](Cc1ccc(O)cc1)C(=O)N1CCC[C@H]1C(=O)N[C@@H](CCCNC(=N)N)C(=O)N[C@H](C(=O)N[C@@H](CCC(=O)O)C(=O)N[C@H](C(=O)NCC(=O)N[C@@H](CO)C(=O)N[C@@H](CCCCNC(=O)CC[C@H](NC(=O)CCCCCCCCCCCCCCCCCCC(=O)O)C(=O)O)C(=O)N[C@H](C(=O)N[C@@H](Cc1ccc(O)cc1)C(N)=O)[C@@H](C)O)[C@@H](C)O)[C@@H](C)O)[C@@H](C)O)[C@@H](C)O [compound 107, [des1, 4G, 15Q, 21Q, 23Y, 30S, 31K(C20 diacid-gGlu), 32T, 33Y]mimylin] (H-ASGLSTAALGRLSQELHELQTYPRTETGSK([γGlu-C20 diacid])TY-NH2) | ≧200 μM | ≧200 μM |  |  |  |  | ≧200 μM | ≧200 μM | ≧200 μM | 148 µM (≈ 580 µg/mL) | 129 µM (≈ 506 µg/mL) | 74 µM (≈ 290 µg/mL) |  |
| CC(C)C[C@H](NC(=O)CNC(=O)[C@H](CO)NC(=O)[C@H](C)NC(=O)CC[C@H](NC(=O)CCCCCCCCCCCCCCCCCCC(=O)O)C(=O)O)C(=O)N[C@@H](CO)C(=O)N[C@H](C(=O)N[C@@H](C)C(=O)N[C@@H](C)C(=O)N[C@@H](CC(C)C)C(=O)NCC(=O)N[C@@H](CCCNC(=N)N)C(=O)N[C@@H](CC(C)C)C(=O)N[C@@H](CO)C(=O)N[C@@H](CCC(N)=O)C(=O)N[C@@H](CCC(=O)O)C(=O)N[C@@H](CC(C)C)C(=O)N[C@@H](Cc1cnc[nH]1)C(=O)N[C@@H](CCC(=O)O)C(=O)N[C@@H](CC(C)C)C(=O)N[C@@H](CCC(=O)O)C(=O)N[C@H](C(=O)N[C@@H](Cc1ccc(O)cc1)C(=O)N1CCC[C@H]1C(=O)N[C@@H](CCCNC(=N)N)C(=O)N[C@H](C(=O)N[C@@H](CCC(=O)O)C(=O)N[C@H](C(=O)NCC(=O)N[C@@H](CO)C(=O)NCC(=O)N[C@H](C(=O)N[C@@H](Cc1ccc(O)cc1)C(N)=O)[C@@H](C)O)[C@@H](C)O)[C@@H](C)O)[C@@H](C)O)[C@@H](C)O [compound 108, [N-terminal(C20 diacid-gGlu), des1, 4G, 15Q, 21E, 23Y, 30S, 31G, 32T, 33Y]mimylin] ({C20 diacid-γGlu}-ASGLSTAALGRLSQELHELETYPRTETGSGTY-NH2) | ≧200 μM | ≧200 μM | 65 µM (≈ 250 µg/mL) | ≧200 μM | ≧200 μM | ≧200 μM | ≧200 μM | ≧200 μM |  |  |  |  |  |

More lines, now with the values ahead:

| Solubility (pH 3.0) | Solubility (pH 4.0) | solubility at 18 h (pH 5.0) | Solubility (pH 6.0) | Solubility (pH 6.5) | Solubility (pH 7.0) | Solubility (pH 7.5) | Solubility (pH 8.0) | Solubility (pH 5.0) | solubility at 18 h (pH 6.0) | solubility at 18 h (pH 6.5) | solubility at 18 h (pH 7.0) | solubility at 18 h (pH 4.0) | SMILES |
| --- | --- | --- | --- | --- | --- | --- | --- | --- | --- | --- | --- | --- | --- |
| ≧200 μM |  | 22 µM (≈ 84.1 µg/mL) | ≧200 μM | ≧200 μM | ≧200 μM | ≧200 μM | ≧200 μM |  |  |  |  | 132 µM (≈ 505 µg/mL) | CC(C)C[C@H](NC(=O)CNC(=O)[C@H](CO)NC(=O)[C@H](C)NC(=O)CC[C@H](NC(=O)CCCCCCCCCCCCCCCCCCC(=O)O)C(=O)O)C(=O)N[C@@H](CO)C(=O)N[C@H](C(=O)N[C@@H](C)C(=O)N[C@@H](C)C(=O)N[C@@H](CC(C)C)C(=O)NCC(=O)N[C@@H](CCCNC(=N)N)C(=O)N[C@@H](CC(C)C)C(=O)N[C@@H](CO)C(=O)N[C@H](C(=O)N[C@@H](CCC(=O)O)C(=O)N[C@@H](CC(C)C)C(=O)N[C@@H](Cc1cnc[nH]1)C(=O)N[C@@H](CCC(=O)O)C(=O)N[C@@H](CC(C)C)C(=O)N[C@@H](CCC(=O)O)C(=O)N[C@H](C(=O)N[C@@H](Cc1ccc(O)cc1)C(=O)N1CCC[C@H]1C(=O)N[C@@H](CCCNC(=N)N)C(=O)N[C@H](C(=O)N[C@@H](CCC(=O)O)C(=O)N[C@H](C(=O)NCC(=O)N[C@@H](CO)C(=O)NCC(=O)N[C@H](C(=O)N[C@@H](Cc1ccc(O)cc1)C(N)=O)[C@@H](C)O)[C@@H](C)O)[C@@H](C)O)[C@@H](C)O)[C@@H](C)O)[C@@H](C)O [compound 112, [N-terminal(C20 diacid-gGlu), des1, 4G, 15T, 21E, 23Y, 30S, 31G, 32T, 33Y]mimylin] ({C20 diacid-γGlu}-ASGLSTAALGRLSTELHELETYPRTETGSGTY-NH2) |
| ≧200 μM |  | 57 µM (≈ 219 µg/mL) | ≧200 μM | ≧200 μM | ≧200 μM | ≧200 μM | ≧200 μM |  |  |  |  | 195 µM (≈ 751 µg/mL) | CC(C)C[C@H](NC(=O)CNC(=O)[C@H](CO)NC(=O)[C@H](C)NC(=O)CC[C@H](NC(=O)CCCCCCCCCCCCCCCCCCC(=O)O)C(=O)O)C(=O)N[C@@H](CO)C(=O)N[C@H](C(=O)N[C@@H](C)C(=O)N[C@@H](C)C(=O)N[C@@H](CC(C)C)C(=O)NCC(=O)N[C@@H](CCCNC(=N)N)C(=O)N[C@@H](CC(C)C)C(=O)N[C@@H](CO)C(=O)N[C@@H](CCC(=O)O)C(=O)N[C@@H](CCC(=O)O)C(=O)N[C@@H](CC(C)C)C(=O)N[C@@H](Cc1cnc[nH]1)C(=O)N[C@@H](CCC(=O)O)C(=O)N[C@@H](CC(C)C)C(=O)N[C@@H](CCC(N)=O)C(=O)N[C@H](C(=O)N[C@@H](Cc1ccc(O)cc1)C(=O)N1CCC[C@H]1C(=O)N[C@@H](CCCNC(=N)N)C(=O)N[C@H](C(=O)N[C@@H](CCC(=O)O)C(=O)N[C@H](C(=O)NCC(=O)N[C@@H](CO)C(=O)NCC(=O)N[C@H](C(=O)N[C@@H](Cc1ccc(O)cc1)C(N)=O)[C@@H](C)O)[C@@H](C)O)[C@@H](C)O)[C@@H](C)O)[C@@H](C)O [compound 113, [N-terminal(C20 diacid-gGlu), des1, 4G, 15E, 21Q, 23Y, 30S, 31G, 32T, 33Y]mimylin] ({C20 diacid-γGlu}-ASGLSTAALGRLSEELHELQTYPRTETGSGTY-NH2) |
